Reference: patent publication US5114918A, “Endothelin antagonistic cyclic pentapeptides” (Banyu Pharmaceutical Co., Ltd., priority 1989, dated 1992)
Numbered stars: 1 amine (or outer) side, 2 acyl side, 3 side chain; on linkers, the order of the positions; unused ones are H or OH. Square brackets hold non-standard residues; d marks the D form. Peptide text beside a SMILES is read from it. * marks the point of attachment. X2 = CNC(=O)Cn1cc(C[C@@H](N[*:1])C(=O)[*:2])c2ccccc21; X6 = COC(=O)Cn1cc(C[C@@H](N[*:1])C(=O)[*:2])c2ccccc21; X3 = NC(=O)Cn1cc(C[C@@H](N[*:1])C(=O)[*:2])c2ccccc21; Gly(N-CH2CH2-imidazol-4-yl) = O=C(O)CNCCc1c[nH]cn1; X4 = O=C1Nc2ccccc2C1C[C@@H](N[*:1])C(=O)[*:2]; dGly(2-thienyl) = N[C@@H](C(=O)O)c1cccs1; X1 = CC[C@](N[*:1])(C(=O)[*:2])c1cccs1; X5 = O=C([C@H](N[*:1])C1=CCC=CC1)[*:2]; dGly(cPent) = N[C@@H](C(=O)O)C1CCCC1; X7 = O=C([C@H](N[*:1])c1ccco1)[*:2]; d(aIle) = CC[C@H](C)[C@@H](N)C(=O)O; Hyp = O=C(O)[C@@H]1C[C@@H](O)CN1; Gly(N-cPent) = O=C(O)CNC1CCCC1; NMeL = CN[C@@H](CC(C)C)C(=O)O; NMeM = CN[C@@H](CCSC)C(=O)O; N(iPr)Gly = CC(C)NCC(=O)O; NMeA = CN[C@@H](C)C(=O)O; Boc = CC(C)(C)OC(=O)*; Sar = CNCC(=O)O; Moc = COC(=O)*

target: T1, endothelin receptor (membrane of smooth muscle tissue of porcine aorta) (Sus scrofa, UniProt Q29010); experiment: Endothelin binding inhibition test (125I-endothelin-1, porcine aorta smooth muscle membrane); conditions: 1.1 μM of the test compound; porcine aorta smooth muscle membrane; 25° C, 4 hours
T1 construct: from tissue; host or cells: smooth muscle tissue of porcine aorta (membrane fraction)
T1 sequence (Q29010 21-427): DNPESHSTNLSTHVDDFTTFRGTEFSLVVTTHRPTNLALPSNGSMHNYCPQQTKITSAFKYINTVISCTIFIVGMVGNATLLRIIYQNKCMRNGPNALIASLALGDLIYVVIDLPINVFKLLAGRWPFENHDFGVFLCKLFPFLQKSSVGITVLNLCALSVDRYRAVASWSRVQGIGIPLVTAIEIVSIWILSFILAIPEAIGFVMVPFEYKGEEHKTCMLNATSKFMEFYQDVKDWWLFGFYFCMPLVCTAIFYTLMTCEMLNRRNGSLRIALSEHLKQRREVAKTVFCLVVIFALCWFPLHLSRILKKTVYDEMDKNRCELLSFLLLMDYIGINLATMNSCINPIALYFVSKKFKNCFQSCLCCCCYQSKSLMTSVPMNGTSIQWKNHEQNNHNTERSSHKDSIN
Procedure: Endothelin binding inhibition test
The smooth muscle tissue of porcine aorta was homogenized in a buffer solution of 10 mM MOPS, pH 7.4, at 4° C. by a polytron. To the homogenate, sucrose was added to a concentration of 20%, and the mixture was centrifuged at 1,000×g for 15 minutes, and the supernatant was further centrifuged at 10,000×g for 15 minutes. The supernatant thereof was further centrifuged at 90,000×g for 40 minutes. The membrane precipitate thereby obtained was suspended in a buffer solution of 5 mM HEPES/Tris, pH 7.4, at a concentration of 25 mg/ml.
Then, 16 μl of this membrane suspension was added to 340 μl of 50 mM Tris/HCl buffer, pH 7.4, containing 10 μM calcium chloride, 10 μM magnesium chloride, 0.1 mM PMSF, 1 μM pepstatin A, 2 μM leupeptin, 1 mM 1,10-phenanthroline and 0.1% bovine serum albumin. To this suspension, 4 μl of (A) endothelin-1 (for nonspecific binding: 0.2 μM as the final concentration), (B) buffer solution A (for total control binding), or (C) a test compound (1.1 μM as the final concentration), was added. Further, to each suspension, 40 μl of ^125 I-endothelin-1 (12000-18000 cpm) was added. These mixtures were incubated at 25° C for 4 hours, then subjected to filtration on a glass filter GF/C and then washed with 5 mM HEPES/Tris, pH 7.4, containing 0.3% bovine serum albumin. Then, the radioactivity trapped by the glass filter was measured, and the ^125 I-endothelin-1 binding inhibition D (%) at 1.1 μM of the test compound was determined by the following equation. [formula] Each test was performed in triplicate.

Compound	125I-endothelin-1 binding inhibition, Inhibition (%)
cyclo(-DTrp(CHO)-DAsp-Met(O)-DVal-Leu-) [Example 77]	78
cyclo(-DTrp(CHO)-DAsp-Pro-DaIle-Leu-) [Example 53]	89
cyclo(-DTrp(CHO)-DCys(O3 Na)-Pro-DThg-Leu-) [Example 75]	87
cyclo(-DTrp(CHO)-DGlu-Ala-DaIle-Leu-) [Example 52]	64
cyclo(-DTrp-DAsp-Cys(O3 Na)-DVal-Leu-) [Example 24]	78
cyclo(-DTrp-DAsp-Pro-DtertLeu-Leu-) [Example 71]	80
cyclo(-DTrp-DCys(O3 Na)-Glu-DVal-Leu-) [Example 49]	67
cyclo(-DTrp-DCys(O3 Na)-Pro-DThg-Leu-) [Example 76]	84
cyclo(-DTrp-DCys(O3 Na)-Pro-DaIle-Leu-) [Example 43]	85
cyclo([dW][dD]P[d(aIle)]L) [Example 32]	87
cyclo([dW][dD]P[dV]L) [Example 30]	72
cyclo([dW][dE]A[d(aIle)]L) [Example 8]	37

same assay, conditions: 1.1 μM of the test compound; porcine aorta smooth muscle membrane; 25° C, 4 hours; read-out: 125I-endothelin-1 binding inhibition, Inhibition (%)

Compound	inhibition at 1.1 µM [%]
CC(C)C[C@H]1C(=O)N[C@H](Cc2c[nH]c3ccccc23)C(=O)N[C@H](CC(=O)O)C(=O)N2CCC[C@H]2C(=O)N[C@H](C(C)C)C(=O)N1C [Example 69, cyclo(-DTrp-DAsp-Pro-DVal-MeLeu-)] (cyclo([NMeL][dW][dD]P[dV]))	85
CSCC[C@H]1C(=O)N[C@H](C(C)C)C(=O)N[C@@H](CC(C)C)C(=O)N[C@H](Cc2c[nH]c3ccccc23)C(=O)N[C@H](CC(=O)O)C(=O)N1C [Example 70, cyclo(-DTrp-DAsp-MeMet-DVal-Leu-)] (cyclo(L[dW][dD][NMeM][dV]))	85
CC(C)C[C@@H]1NC(=O)[C@@H](c2cccs2)NC(=O)CN(C)C(=O)[C@@H](CC(=O)O)NC(=O)[C@@H](Cc2c[nH]c3ccccc23)NC1=O [Example 72, cyclo(-DTrp-DAsp-Sar-DThg-Leu-)] (cyclo(L[dW][dD][Sar][dGly(2-thienyl)]))	79
CC(C)C[C@@H]1NC(=O)[C@@H](c2cccs2)NC(=O)CN(C2CCCC2)C(=O)[C@@H](CC(=O)O)NC(=O)[C@@H](Cc2c[nH]c3ccccc23)NC1=O [Example 73, cyclo(-DTrp-DAsp-CpGly-DThg-Leu-)] (cyclo(L[dW][dD][Gly(N-cPent)][dGly(2-thienyl)]))	85
CC(C)C[C@@H]1NC(=O)[C@@H](C2=CCC=CC2)NC(=O)[C@@H]2CCCN2C(=O)[C@@H](CC(=O)O)NC(=O)[C@@H](Cc2c[nH]c3ccccc23)NC1=O [Example 74, cyclo(-DTrp-DAsp-Pro-DDpg-Leu-)] (cyclo(L[dW][dD]P[X5]))	89
CC(C)C[C@@H]1NC(=O)[C@@H](c2cccs2)NC(=O)CN(C(C)C)C(=O)[C@@H](CC(=O)O)NC(=O)[C@@H](Cc2c[nH]c3ccccc23)NC1=O [Example 78, cyclo(-DTrp-DAsp-^i PrGly-DThg-Leu-)] (cyclo(L[dW][dD][N(iPr)Gly][dGly(2-thienyl)]))	85
CC(C)C[C@@H]1NC(=O)[C@@H](c2cccs2)NC(=O)[C@@H]2C[C@@H](O)CN2C(=O)[C@@H](CC(=O)O)NC(=O)[C@@H](Cc2c[nH]c3ccccc23)NC1=O [Example 79, cyclo(-DTrp-DAsp-trans-Hyp-DThg-Leu-)] (cyclo([Hyp][dGly(2-thienyl)]L[dW][dD]))	88
CC(C)C[C@@H]1NC(=O)[C@@H](c2ccco2)NC(=O)[C@@H]2CCCN2C(=O)[C@@H](CC(=O)O)NC(=O)[C@@H](Cc2c[nH]c3ccccc23)NC1=O [Example 80, cyclo(-DTrp-DAsp-Pro-DFug-Leu-)] (cyclo(L[dW][dD]P[X7]))	83
CC(C)C[C@@H]1NC(=O)[C@@H](C2CCCC2)NC(=O)[C@@H]2CCCN2C(=O)[C@@H](CC(=O)O)NC(=O)[C@@H](Cc2c[nH]c3ccccc23)NC1=O [Example 81, cyclo(-DTrp-DAsp-Pro-DCpg-Leu-)] (cyclo(L[dW][dD]P[dGly(cPent)]))	86
CC[C@]1(c2cccs2)NC(=O)[C@@H]2CCCN2C(=O)[C@@H](CC(=O)O)NC(=O)[C@@H](Cc2c[nH]c3ccccc23)NC(=O)[C@H](CC(C)C)NC1=O [Example 82, cyclo(-DTrp-DAsp-Pro-DEtg-Leu-)] (cyclo(L[dW][dD]P[X1]))	81
CC(C)C[C@@H]1NC(=O)[C@@H](c2cccs2)NC(=O)CN(CC(=O)O)C(=O)[C@@H](CC(=O)O)NC(=O)[C@@H](Cc2c[nH]c3ccccc23)NC1=O [Example 83, cyclo(-DTrp-DAsp-CmGly-DThg-Leu-)]	82
CC(C)[C@H]1NC(=O)[C@@H]2CCCN2C(=O)[C@@H](CC(=O)O)NC(=O)[C@@H](Cc2c[nH]c3ccccc23)NC(=O)[C@H](Cc2c[nH]cn2)NC1=O [Example 84, cyclo(-DTrp-DAsp-Pro-DVal-His)] (cyclo(H[dW][dD]P[dV]))	43
CC(C)C[C@@H]1NC(=O)[C@@H](C(C)C)NC(=O)CN(CCc2c[nH]cn2)C(=O)[C@@H](CC(=O)O)NC(=O)[C@@H](Cc2c[nH]c3ccccc23)NC1=O [Example 85, cyclo(-DTrp-DAsp-IeGly-DVal-Leu-)] (cyclo(L[dW][dD][Gly(N-CH2CH2-imidazol-4-yl)][dV]))	82
COC(=O)n1cc(C[C@H]2NC(=O)[C@H](CC(C)C)NC(=O)[C@@H](C(C)C)NC(=O)[C@@H]3CCCN3C(=O)[C@@H](CC(=O)O)NC2=O)c2ccccc21 [Example 86, cyclo(-DTrp(COOCH3)-DAsp-Pro-DVal-Leu-)] (cyclo(L[dW](Moc)[dD]P[dV]))	90
CC(C)C[C@@H]1NC(=O)[C@@H](C(C)C)NC(=O)[C@@H]2CCCN2C(=O)[C@@H](CC(=O)O)NC(=O)[C@@H](Cc2cn(C(=O)OC(C)(C)C)c3ccccc23)NC1=O [Example 87, cyclo(-DTrp(COO^t Bu)-DAsp-Pro-DVal-leu-)] (cyclo(L[dW](Boc)[dD]P[dV]))	34
CC(C)C[C@@H]1NC(=O)[C@@H](C(C)C)NC(=O)[C@@H]2CCCN2C(=O)[C@@H](CC(=O)O)NC(=O)[C@@H](CC2C(=O)Nc3ccccc32)NC1=O (stereo partly drawn) [Example 88, cyclo(-DTrp(O)-Dsp-Pro-DVal-Leu-)] (cyclo(L[X4][dD]P[dV]))	78
CC(C)C[C@@H]1NC(=O)[C@@H](C(C)C)NC(=O)[C@H](C)N(C)C(=O)[C@@H](CC(=O)O)NC(=O)[C@@H](CC2C(=O)Nc3ccccc32)NC1=O (stereo partly drawn) [Example 89, cyclo(-DTrp(O)-DAsp-MeAla-DVal-Leu-)] (cyclo(L[X4][dD][NMeA][dV]))	67
COC(=O)Cn1cc(C[C@H]2NC(=O)[C@H](CC(C)C)NC(=O)[C@@H](C(C)C)NC(=O)[C@@H]3CCCN3C(=O)[C@@H](CC(=O)O)NC2=O)c2ccccc21 [Example 90, cyclo(-DTrp(CH2 COOCH3)-DAsp-Pro-DVal-Leu-)] (cyclo(L[X6][dD]P[dV]))	35
CC(C)C[C@@H]1NC(=O)[C@@H](C(C)C)NC(=O)[C@@H]2CCCN2C(=O)[C@@H](CC(=O)O)NC(=O)[C@@H](Cc2cn(CC(N)=O)c3ccccc23)NC1=O [Example 91, cyclo(-DTrp(CH2 CONH2)-DAsp-Pro-DVal-Leu-)] (cyclo(L[X3][dD]P[dV]))	23
CNC(=O)Cn1cc(C[C@H]2NC(=O)[C@H](CC(C)C)NC(=O)[C@@H](C(C)C)NC(=O)[C@@H]3CCCN3C(=O)[C@@H](CC(=O)O)NC2=O)c2ccccc21 [Example 92, cyclo(-DTrp(CH2 CONHCH3)-DAsp-Pro-DVal-Leu-)] (cyclo(L[X2][dD]P[dV]))	28
